These are literature values, as cited in patent US20170157075A1, “Edible Compositions and Methods for Promoting Alpha Brain Waves” (priority 2015, published 2017).

For data set [1] the following is noted: estimated.
The conditions of data set [2]: 300 mg per day; controlled trial.
The conditions of data set [3]: single 100 mg nighttime dose; placebo-controlled study.
For data set [4] the following is noted: 300 mg per day.
The conditions of data set [5]: 600-900 mg daily; twelve weeks.
Assay in data set [6]: not given
The source holds these as a separate data set.

Assay in data set [7]: not given
The source holds these as a separate data set.

For data set [8] the following is noted: daily 20 mg for every 10 pounds of body weight; controlled study.

Turning to `N[C@@H](Cc1c[nH]c2ccccc12)C(=O)O` [L-tryptophan], the “therapeutic effect on cluster of mood symptoms versus placebo” value (6 grams daily for 17 days, three consecutive cycles, 37 patients treated, 34 placebo) was “significant (p=0.004) therapeutic effect”. Besides, the “withdrawals due to drug side effects” value (6 grams daily, 71 women include placebo group) is listed as 1 of 71 women.
On to `N[C@@H](Cc1c[nH]c2ccc(O)cc12)C(=O)O` [5-HTP, 5-hydroxytryptophan], for which the “share of an oral dose that ends up producing serotonin in the body” value in data set [1] is given as 70%. Further, the “effect on symptoms of fibromyalgia” value in data set [2] was “effective in reducing many symptoms of fibromyalgia”. Moreover, the “effect on duration and depth of sleep” value in data set [3] is “sufficient to improve the duration and depth of sleep”. Also, the effect in depression entry in data set [4] is on record as “often effective”. In addition, the average weight loss in data set [5] was 11 lbs. In addition, the “share of subjects with migraine attacks reduced in frequency, severity and duration” value in [6] (400 mg per day, well-controlled trial) was 90%. For the same molecule, the “reduction of migraine headache attacks versus prescription medications” value in [6] (600 mg per day, adults, two double blind studies) is “as effective as prescription medications”. In addition, in data set [7] (cited 5-HTP studies, 100-900 mg daily), the “side effects or interactions reported during the studies” value was “mild gastrointestinal disturbances in some people, mild nausea, heartburn, flatulence, feelings of fullness, and rumbling sensations”. In addition, the “effect of high doses on brain dopamine” value in data set [7] (high doses, over time (Hinz et al. 2011, 2012)) is given as “can lead over time to depletion of brain dopamine”. Further, the “doses with no toxicity reports” value in data set [7] (humans, Examine.com summary) is recorded as at most 50 mg/kg bodyweight. Also, the “response of children with migraines and sleep problems” value in data set [8] was “responded well”.
